According to PubChem BioAssay (NCI):
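Five concentrations, 48 hours, 96-well plates. Here, GI50 denotes the concentration required for 50% inhibition of growth. TGI: total growth inhibition.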

Experiments:
Assay in all cases: growth of human tumour cells (NCI), 48 h
UO-31 renal = test system: UO-31 renal
MCF7 breast = test system: MCF7 breast
NCI-H522 lung = test system: NCI-H522 lung
SF-295 CNS = test system: SF-295 CNS
UACC-257 melanoma = test system: UACC-257 melanoma
U251 CNS = test system: U251 CNS
OVCAR-8 ovarian = test system: OVCAR-8 ovarian
IGROV1 ovarian = test system: IGROV1 ovarian
NCI-H460 lung = test system: NCI-H460 lung
NCI-H226 lung = test system: NCI-H226 lung
OVCAR-3 ovarian = test system: OVCAR-3 ovarian
MALME-3M melanoma = test system: MALME-3M melanoma
HCC-2998 colon = test system: HCC-2998 colon
ACHN renal = test system: ACHN renal
PC-3 prostate = test system: PC-3 prostate
CCRF-CEM leukemia = test system: CCRF-CEM leukemia
CAKI-1 renal = test system: CAKI-1 renal
A498 renal = test system: A498 renal
EKVX NSCLC = test system: EKVX NSCLC
A549 NSCLC = test system: A549 NSCLC
SF-539 CNS = test system: SF-539 CNS
786-0 renal = test system: 786-0 renal
TK-10 renal = test system: TK-10 renal
HT29 colon = test system: HT29 colon
SR leukemia = test system: SR leukemia
SNB-19 CNS = test system: SNB-19 CNS
HOP-62 NSCLC = test system: HOP-62 NSCLC
DU-145 prostate = test system: DU-145 prostate
BT-549 breast = test system: BT-549 breast
SK-MEL-5 melanoma = test system: SK-MEL-5 melanoma
HOP-92 NSCLC = test system: HOP-92 NSCLC
MDA-MB-435 = test system: MDA-MB-435
UACC-62 melanoma = test system: UACC-62 melanoma
NCI-H23 lung = test system: NCI-H23 lung
NCI/ADR-RES ovarian = test system: NCI/ADR-RES ovarian
LOX IMVI melanoma = test system: LOX IMVI melanoma
SK-MEL-2 melanoma = test system: SK-MEL-2 melanoma
M14 melanoma = test system: M14 melanoma
SNB-75 CNS = test system: SNB-75 CNS
SK-MEL-28 melanoma = test system: SK-MEL-28 melanoma
OVCAR-4 ovarian = test system: OVCAR-4 ovarian
HL-60(TB) leukemia = test system: HL-60(TB) leukemia
SN12C renal = test system: SN12C renal
MOLT-4 leukemia = test system: MOLT-4 leukemia
MDA-MB-231 breast = test system: MDA-MB-231 breast
OVCAR-5 ovarian = test system: OVCAR-5 ovarian
SF-268 CNS = test system: SF-268 CNS
RXF 393 renal = test system: RXF 393 renal
HS 578T breast = test system: HS 578T breast
SW-620 colon = test system: SW-620 colon
HCT-116 colon = test system: HCT-116 colon
COLO 205 colon = test system: COLO 205 colon
KM12 colon = test system: KM12 colon
K-562 leukemia = test system: K-562 leukemia
T-47D breast = test system: T-47D breast
SK-OV-3 ovarian = test system: SK-OV-3 ovarian
RPMI-8226 leukemia = test system: RPMI-8226 leukemia
HCT-15 colon = test system: HCT-15 colon

CCN(CC)CCOc1nc2c3ccc(Cl)cc3nn2c2ccccc12
GI50 (UO-31 renal): 1.07 µM | TGI (UO-31 renal): 2.66 µM | GI50 (MCF7 breast): 1.96 µM | TGI (MCF7 breast): 6.08 µM | GI50 (NCI-H522 lung): 2.37 µM | TGI (NCI-H522 lung): 6.43 µM | GI50 (SF-295 CNS): 1.79 µM | TGI (SF-295 CNS): 4.18 µM | GI50 (UACC-257 melanoma): 1.89 µM | TGI (UACC-257 melanoma): 4.02 µM | GI50 (U251 CNS): 2.11 µM | TGI (U251 CNS): 5.4 µM | GI50 (OVCAR-8 ovarian): 2.64 µM | TGI (OVCAR-8 ovarian): 55.9 µM | GI50 (IGROV1 ovarian): 1.54 µM | TGI (IGROV1 ovarian): 4.62 µM | GI50 (NCI-H460 lung): 2.61 µM | TGI (NCI-H460 lung): 7.5 µM | GI50 (NCI-H226 lung): 2.06 µM | TGI (NCI-H226 lung): 10.2 µM | GI50 (OVCAR-3 ovarian): 2.86 µM | TGI (OVCAR-3 ovarian): 9.42 µM | GI50 (MALME-3M melanoma): 1.6 µM | TGI (MALME-3M melanoma): 3.22 µM | GI50 (HCC-2998 colon): 1.62 µM | TGI (HCC-2998 colon): 3.43 µM | GI50 (ACHN renal): 1.32 µM | TGI (ACHN renal): 3.36 µM | GI50 (PC-3 prostate): 2.29 µM | TGI (PC-3 prostate): 9.94 µM | GI50 (CCRF-CEM leukemia): 2.25 µM | TGI (CCRF-CEM leukemia): 12.8 µM | GI50 (CAKI-1 renal): 1.45 µM | TGI (CAKI-1 renal): 2.97 µM | GI50 (A498 renal): 1.62 µM | TGI (A498 renal): 3.05 µM | GI50 (EKVX NSCLC): 2.62 µM | TGI (EKVX NSCLC): 9.71 µM | GI50 (A549 NSCLC): 1.87 µM | TGI (A549 NSCLC): 4.63 µM | GI50 (SF-539 CNS): 1.71 µM | TGI (SF-539 CNS): 3.84 µM | GI50 (786-0 renal): 1.69 µM | TGI (786-0 renal): 3.67 µM | GI50 (TK-10 renal): 3.88 µM | TGI (TK-10 renal): 16.1 µM | GI50 (HT29 colon): 2.04 µM | TGI (HT29 colon): 9.9 µM | GI50 (SR leukemia): 2.12 µM | TGI (SR leukemia): 15.8 µM | GI50 (SNB-19 CNS): 3.28 µM | TGI (SNB-19 CNS): 36.1 µM | GI50 (HOP-62 NSCLC): 2.38 µM | TGI (HOP-62 NSCLC): 12.5 µM | GI50 (DU-145 prostate): 2.4 µM | TGI (DU-145 prostate): 6.07 µM | GI50 (BT-549 breast): 3.54 µM | TGI (BT-549 breast): 17.5 µM | GI50 (SK-MEL-5 melanoma): 1.73 µM | TGI (SK-MEL-5 melanoma): 3.12 µM | GI50 (HOP-92 NSCLC): 1.4 µM | TGI (HOP-92 NSCLC): 6.41 µM | GI50 (MDA-MB-435): 1.15 µM | TGI (MDA-MB-435): 2.79 µM | GI50 (UACC-62 melanoma): 1.79 µM | TGI (UACC-62 melanoma): 3.7 µM | GI50 (NCI-H23 lung): 1.81 µM | TGI (NCI-H23 lung): 4.9 µM | GI50 (NCI/ADR-RES ovarian): 1.89 µM | TGI (NCI/ADR-RES ovarian): 8.24 µM | GI50 (LOX IMVI melanoma): 1.44 µM | TGI (LOX IMVI melanoma): 3.05 µM | GI50 (SK-MEL-2 melanoma): 2.16 µM | TGI (SK-MEL-2 melanoma): 4.94 µM | GI50 (M14 melanoma): 1.76 µM | TGI (M14 melanoma): 3.95 µM | GI50 (SNB-75 CNS): 1.58 µM | TGI (SNB-75 CNS): 8.35 µM | GI50 (SK-MEL-28 melanoma): 1.89 µM | TGI (SK-MEL-28 melanoma): 3.57 µM | GI50 (OVCAR-4 ovarian): 2.78 µM | TGI (OVCAR-4 ovarian): 9.06 µM | GI50 (HL-60(TB) leukemia): 2.06 µM | TGI (HL-60(TB) leukemia): 5.64 µM | GI50 (SN12C renal): 2.21 µM | TGI (SN12C renal): 10.1 µM | GI50 (MOLT-4 leukemia): 2.77 µM | TGI (MOLT-4 leukemia): > 100 µM | GI50 (MDA-MB-231 breast): 2.02 µM | TGI (MDA-MB-231 breast): 7.03 µM | GI50 (OVCAR-5 ovarian): 2.67 µM | TGI (OVCAR-5 ovarian): 10.3 µM | GI50 (SF-268 CNS): 2.89 µM | TGI (SF-268 CNS): 11 µM | GI50 (RXF 393 renal): 1.75 µM | TGI (RXF 393 renal): 3.94 µM | GI50 (HS 578T breast): 2.59 µM | TGI (HS 578T breast): 11.3 µM | GI50 (SW-620 colon): 1.42 µM | TGI (SW-620 colon): 4.13 µM | GI50 (HCT-116 colon): 1.4 µM | TGI (HCT-116 colon): 3.53 µM | GI50 (COLO 205 colon): 1.55 µM | TGI (COLO 205 colon): 4.55 µM | GI50 (KM12 colon): 1.96 µM | TGI (KM12 colon): 4.69 µM | GI50 (K-562 leukemia): 2.73 µM | TGI (K-562 leukemia): > 100 µM | GI50 (T-47D breast): 3.51 µM | TGI (T-47D breast): 18.8 µM | GI50 (SK-OV-3 ovarian): 2.49 µM | TGI (SK-OV-3 ovarian): 21.4 µM

COc1ccc(N2C(=O)C3c4[nH]c5ccc(C)cc5c4C4CCC(c5ccccc5)CC4C3C2=O)cc1 (centres undefined)
TGI (UO-31 renal): > 100 µM | TGI (MCF7 breast): > 100 µM | TGI (NCI-H522 lung): > 100 µM | TGI (SF-295 CNS): > 100 µM | TGI (UACC-257 melanoma): > 100 µM | TGI (U251 CNS): 98.6 µM | TGI (OVCAR-8 ovarian): > 83.9 µM | TGI (IGROV1 ovarian): > 100 µM | TGI (NCI-H460 lung): > 100 µM | TGI (NCI-H226 lung): > 100 µM | TGI (OVCAR-3 ovarian): > 100 µM | TGI (MALME-3M melanoma): > 100 µM | TGI (RPMI-8226 leukemia): > 100 µM | TGI (HCC-2998 colon): > 100 µM | TGI (ACHN renal): > 100 µM | TGI (PC-3 prostate): > 100 µM | TGI (CCRF-CEM leukemia): > 55.5 µM | TGI (CAKI-1 renal): > 72.5 µM | TGI (A498 renal): > 68.8 µM | TGI (EKVX NSCLC): > 100 µM | TGI (A549 NSCLC): > 100 µM | TGI (786-0 renal): > 62.2 µM | TGI (TK-10 renal): > 75.3 µM | TGI (HT29 colon): > 100 µM | TGI (SR leukemia): 23.6 µM | TGI (SNB-19 CNS): > 66.5 µM | TGI (HOP-62 NSCLC): 26.8 µM | TGI (DU-145 prostate): > 100 µM | TGI (BT-549 breast): > 100 µM | TGI (SK-MEL-5 melanoma): > 100 µM | TGI (HOP-92 NSCLC): > 90.2 µM | TGI (MDA-MB-435): > 100 µM | TGI (UACC-62 melanoma): > 79.5 µM | TGI (NCI-H23 lung): > 100 µM | TGI (NCI/ADR-RES ovarian): > 100 µM | TGI (LOX IMVI melanoma): > 100 µM | TGI (SK-MEL-2 melanoma): > 69.4 µM | TGI (M14 melanoma): > 100 µM | TGI (SNB-75 CNS): 12 µM | TGI (SK-MEL-28 melanoma): > 100 µM | TGI (OVCAR-4 ovarian): > 82.3 µM | TGI (HL-60(TB) leukemia): > 100 µM | TGI (SN12C renal): > 100 µM | TGI (MOLT-4 leukemia): > 100 µM | TGI (MDA-MB-231 breast): > 49.5 µM | TGI (OVCAR-5 ovarian): > 100 µM | TGI (SF-268 CNS): > 100 µM | TGI (RXF 393 renal): 41 µM | TGI (HS 578T breast): > 73.4 µM | TGI (HCT-15 colon): > 100 µM | TGI (SW-620 colon): > 100 µM | TGI (HCT-116 colon): > 100 µM | TGI (COLO 205 colon): > 100 µM | TGI (KM12 colon): > 100 µM | TGI (K-562 leukemia): 98.9 µM | TGI (T-47D breast): > 100 µM | TGI (SK-OV-3 ovarian): > 100 µM
